Laboratory results published in patent US4459293A, “Method of modulating the complement system by administering bis-[β-D-glucopyranosyl-1-thio (or sulfinyl or sulfonyl)]-aryline sulfate derivatives and the cation salts thereof” (American Cyanamid Company, priority 1983, dated 1984).
Where a name gives a salt, the structure may show the parent alone.

Tests used:
[1] = system: late components of human complement (C3-C9); assay: Test Code 035 (C3-C9 inhibitor): protection of EAC 142 from lysis by late components of human complement; assay type: biochemical; conditions: activity in wells, twofold serial dilutions; higher well number indicates higher activity
Experimental: (§1) An active inhibitor protects C2 from C1 and C4; (ii) Test Code 035 (C3-C9 inhibitor)--This test determines the ability of the late components of human complement (C3-C9) to lyse EAC 142 in the presence of appropriate dilutions of the test compound. An active inhibitor protects EAC 142 from lysis by human C3-C9; and (iii) Cap 50 Test--Here, appropriate amounts of the test compound are added to a pool of guinea pig serum in vitro, after which the undiluted serum capillary tube assay of U.S. Pat. No. 3,876,376 is run. The concentration of compound inhibiting 50% is reported.
(§2) **Activity in wells, a serial dilution assay; higher well number indicate
(§3) higher activitiy. The serial dilutions are twofold.

activated human C1 = target: T1, activated human C1 (Homo sapiens, UniProt P09871); assay: Test Code 026 (C1 inhibitor): protection of fluid phase human C2 from activated human C1 in the presence of C4, serial dilution assay; assay type: biochemical; conditions: activity in wells, twofold serial dilutions; higher well number indicates higher activity
T1 construct: fluid-phase C2 destruction in presence of C4
Experimental: as §1, §2, §3

T1 sequence (P09871 16-688): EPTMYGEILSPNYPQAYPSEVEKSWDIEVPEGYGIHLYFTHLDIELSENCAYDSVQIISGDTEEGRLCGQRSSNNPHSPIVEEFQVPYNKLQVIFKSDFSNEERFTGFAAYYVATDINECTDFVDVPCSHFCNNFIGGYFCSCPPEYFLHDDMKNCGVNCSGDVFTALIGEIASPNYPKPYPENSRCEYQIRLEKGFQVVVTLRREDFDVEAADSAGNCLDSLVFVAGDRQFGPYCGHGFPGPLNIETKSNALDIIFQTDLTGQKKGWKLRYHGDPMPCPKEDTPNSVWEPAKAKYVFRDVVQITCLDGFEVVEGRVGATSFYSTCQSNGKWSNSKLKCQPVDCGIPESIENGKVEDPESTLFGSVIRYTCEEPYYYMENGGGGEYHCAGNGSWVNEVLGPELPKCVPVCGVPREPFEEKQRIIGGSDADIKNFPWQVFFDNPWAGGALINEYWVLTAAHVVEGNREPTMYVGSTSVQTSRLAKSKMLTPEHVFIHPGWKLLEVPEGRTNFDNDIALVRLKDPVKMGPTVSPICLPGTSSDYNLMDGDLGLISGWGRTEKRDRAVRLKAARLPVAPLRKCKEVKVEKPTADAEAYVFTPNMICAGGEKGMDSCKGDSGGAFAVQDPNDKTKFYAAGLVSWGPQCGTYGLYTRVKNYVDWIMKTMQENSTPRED
T1 sequence (P00736 18-705 partner): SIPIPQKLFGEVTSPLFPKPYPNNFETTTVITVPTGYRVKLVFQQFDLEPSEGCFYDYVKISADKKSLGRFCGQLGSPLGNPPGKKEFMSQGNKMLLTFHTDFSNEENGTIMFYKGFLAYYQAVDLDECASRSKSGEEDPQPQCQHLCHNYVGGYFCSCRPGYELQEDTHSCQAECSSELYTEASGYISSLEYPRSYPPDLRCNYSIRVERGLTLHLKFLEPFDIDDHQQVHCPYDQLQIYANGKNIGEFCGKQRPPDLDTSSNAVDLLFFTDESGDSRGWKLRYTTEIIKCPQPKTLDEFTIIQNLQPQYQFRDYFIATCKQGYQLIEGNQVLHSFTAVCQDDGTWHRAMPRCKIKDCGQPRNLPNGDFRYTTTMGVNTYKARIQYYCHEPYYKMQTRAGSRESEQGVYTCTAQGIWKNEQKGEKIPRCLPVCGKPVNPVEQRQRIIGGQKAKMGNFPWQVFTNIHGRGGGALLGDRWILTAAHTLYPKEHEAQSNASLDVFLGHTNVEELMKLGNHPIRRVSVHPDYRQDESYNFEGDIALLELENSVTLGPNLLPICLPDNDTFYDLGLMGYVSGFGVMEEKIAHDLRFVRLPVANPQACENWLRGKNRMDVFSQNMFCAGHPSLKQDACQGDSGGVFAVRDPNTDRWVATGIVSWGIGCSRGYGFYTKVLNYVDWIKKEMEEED
T1 sequence (P02745 23-245 partner): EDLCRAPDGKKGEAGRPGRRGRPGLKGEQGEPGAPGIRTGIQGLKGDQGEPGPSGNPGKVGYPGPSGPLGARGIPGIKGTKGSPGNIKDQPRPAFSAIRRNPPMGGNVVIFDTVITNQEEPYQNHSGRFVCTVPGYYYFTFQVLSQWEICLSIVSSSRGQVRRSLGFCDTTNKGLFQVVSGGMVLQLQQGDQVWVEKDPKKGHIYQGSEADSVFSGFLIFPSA
T1 sequence (P02746 28-253 partner): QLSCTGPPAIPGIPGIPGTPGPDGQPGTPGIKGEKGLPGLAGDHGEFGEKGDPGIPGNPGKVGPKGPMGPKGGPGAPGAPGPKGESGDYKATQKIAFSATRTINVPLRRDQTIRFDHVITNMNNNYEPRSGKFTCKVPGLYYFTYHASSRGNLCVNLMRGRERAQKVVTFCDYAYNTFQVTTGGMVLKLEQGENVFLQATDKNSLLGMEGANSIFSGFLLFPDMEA
T1 sequence (P02747 29-245 partner): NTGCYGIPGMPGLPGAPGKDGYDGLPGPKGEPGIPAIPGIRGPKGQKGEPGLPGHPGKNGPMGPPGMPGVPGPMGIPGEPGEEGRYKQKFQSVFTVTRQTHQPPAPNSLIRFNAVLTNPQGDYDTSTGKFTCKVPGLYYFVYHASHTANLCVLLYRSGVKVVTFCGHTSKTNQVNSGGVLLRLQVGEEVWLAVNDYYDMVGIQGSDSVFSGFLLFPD

Cl 026 Wells (activated human C1) | SMILES | C-Late 035 Wells [1]
5 Wells | CC(=O)N[C@@H]1[C@@H](OS(=O)(=O)O)[C@H](OS(=O)(=O)O)[C@@H](COS(=O)(=O)O)O[C@H]1Sc1cccc(S[C@@H]2O[C@H](COS(=O)(=O)O)[C@@H](OS(=O)(=O)O)[C@H](OS(=O)(=O)O)[C@H]2NC(C)=O)c1 [1,3-Bis-[β-D-(2-acetylamino)-glucopyranosyl-1-thio]-phenylene, hexakis(H-sulfate), hexasodium salt] | 1 Wells
5 Wells | O=C(O)[C@H]1O[C@@H](Sc2cccc(S[C@@H]3O[C@H](C(=O)O)[C@@H](OS(=O)(=O)O)[C@H](OS(=O)(=O)O)[C@H]3OS(=O)(=O)O)c2)[C@H](OS(=O)(=O)O)[C@@H](OS(=O)(=O)O)[C@@H]1OS(=O)(=O)O [1,3-Bis[β-D-glucopyranosiduronic acid-1-thio]-phenylene, hexakis(H-sulfate), octasodium salt] | –
4 Wells | O=S(=O)(O)OC[C@H]1O[C@@H](Sc2ccc(Oc3ccc(S[C@@H]4O[C@H](COS(=O)(=O)O)[C@@H](OS(=O)(=O)O)[C@H](OS(=O)(=O)O)[C@H]4OS(=O)(=O)O)cc3)cc2)[C@H](OS(=O)(=O)O)[C@@H](OS(=O)(=O)O)[C@@H]1OS(=O)(=O)O [Oxydi-p-phenylene bis-[1-thio-β-D-glucopyranoside], octakis(H-sulfate), octasodium salt] | –
